Here are results for two substances from patent US20110129548A1, “Immunopotentiating Compositions Comprising Beta-1, 3/1, 6-D-Glucan and Uses Thereof” (BioAgra, LLC, priority 2006, published 2011).

Assay [1] concerns macrophage cell line RAW264 cells. Briefly: Hydrogen peroxide production by RAW264 macrophages. It is filed as cell-based, murine. To be noted: 1 h; for Fluorescence: control 229.00 ± 4.54. The protocol: To determine hydrogen peroxide production, macrophage cell line RAW264 cells were plated into 96 well tissue culture plates and cultured until confluent in phenol red-free alpha-minimum essential medium, supplemented with 10% fetal bovine serum. Once confluence was reached, the media was removed, the cells were washed, and substrate and test substances were added. To insure cell number uniformity at confluence, cell numbers were determined in 8 wells; if the number of cells differed by more than 10% the plate was not used. Following an incubation period of exactly 1h the reaction was stopped and resulting fluorescence measured with an ELISA-reader at λmax, excitation=312 nm, λmax, emission=420 nm. Zymosan, the residue from a hot alcoholic extraction of yeast, and curdlan, a linear beta-1,3-D-glucan, were used as positive controls.

Assay [2] concerns blood cells (WBC, RBC, MON, PMN). Briefly: Effect of Vitamin D plus beta-1,3/1,6-D-glucan on blood cells (differential cell count). It is filed as in vivo. To be noted: rabbits, capsules for 9 weeks. On the procedure:
To determine the effect of Vitamin D plus beta-1,3/1,6-D-glucan (AGRASTIM®) on the immunocompetence of an animal, rabbits (10 per group) were given capsules of equal weight comprising 10 mg of beta-1,3/1,6-D-glucan (AGRASTIM®), 10 mg of beta-1,3/1,6-D-glucan (AGRASTIM®) plus 50 IU of Vitamin D, or 50 IU Vitamin D for 9 weeks. At the end of 9 weeks the number of white blood cells (WBCs), red blood cells (RBCs), mononuclear cells (MONs), and polymorphonuclear cells (PMNs) were determined by differential cell count.

Where [3] appears, read: percent with the control set to 100.

In assay [1] (dose 10 μg/assay), CURDLAN showed an H2O2-Release of 0.76 nmol and a Fluorescence of 254.00 ± 1.02 arbitrary units. In addition, in assay [1] (dose 50 μg/assay), the H2O2-Release amounted to 1.06 nmol and the Fluorescence is reported as 345.00 ± 6.48 arbitrary units.
As for Vitamin D, in assay [2], the “increase of PMNs” value came to 29%, the “increase of WBCs above control” value is on record as “no effect” and the “increase of the number of RBCs” value is “neither beta-1,3/1,6-D-glucan alone nor Vitamin D had significant effects”. In addition, in assay [2] (setting [3]), the MON turned out to be 83%, the PMN amounted to 129%, the RBC came to 84% and the WBC is recorded as 100%.
